Measured values from patent publication US20250268980A1, “AN ANTICANCER THERAPY TARGETING RAS AND OTHER ONCOGENIC SIGNALS BY INHIBITION OF DYNAMIC BLEBBING AND/OR SEPTINS” (THE BOARD OF REGENTS OF THE UNIVERSITY OF TEXAS SYSTEM, priority 2022, published 2025).

Tests used:
Assay type in all cases: cell-based, human
[1] = test system: NRAS; test: NRAS-GFP enrichment at the cortex of MV3 cells; settings: voxels within 0.96 μm of surface
Protocol: 3D Cell Image Analysis. Cell morphology and septin localization were analyzed principally via u-shape3D similar to the protocol described in Driscoll et al. Nature Methods. 16, 1037-1044 (2019), the disclosure of which is incorporated herein in its entirety. Briefly, 3D images were first deconvolved using either a Richardson-Lucy or Wiener algorithm with an experimentally measured point spread function. Cells were next segmented from the image background using u-shape3D's ‘twoLevel’ mode, which combines a straightforward Otsu threshold of the image to detect the outer cell surface with a blurred version of the image to segment the inside of the cell. The volume segmented from the blurred image was morphologically eroded to ensure the fidelity of the overall segmentation. Cell surfaces were then represented as triangle meshes, and the mean surface curvature at every triangle was calculated according to methods described in Driscoll et al. Nature Methods. 16, 1037-1044 (2019) and Elliott et al., Nat. […] Septin and NRAS localization was measured from fluorescence images by extending a sphere of either 1 μm (for septins) or 2 μm (for NRAS) about each mesh triangle and mapping to the triangle the average intensity both within that sphere and the cell. Image intensity was not depth normalized prior to analysis, but was instead measured from the raw, undeconvolved image. […]

[2] = test system: PI3K; test: PI3K activity with Akt-PH-GFP biosensor in MV3 cells; settings: rounded, poorly-adhered MV3 cells
Protocol: Cells Embedded in 3D Collagen.
Cells Grown in VitroGel Coffins. VitroGel coffins were prepared by embedding MV3 or A375 cells in VitroGel 3D or RGD at 1:1 dilution according to manufacturer's instructions (TheWell Biosciences, sku #TWG001). […] A 1:1 solution of VitroGel and VitroGel Dilution Solution was made and added to cell suspension at a ratio of 4:1 (VitroGel: cells) using gentle pipetting until well-mixed (with care taken not to form bubbles). Cell/VitroGel solution was transferred to an 8-well uncoated ibidi μ-slide (ibidi cat #80821) at 100 μl/well, spread over the bottom of wells with a pipette tip, and allowed to polymerize at room temperature for 15 minutes. […]
Cortical septin levels were quantified by measuring the mean cytoplasmic intensity of each cell using hand-drawn ROIs that excluded nuclei (performed with the FIJI ImageJ package), and then calculating for each cell its fraction of cortical voxels (intracellular voxels within 0.96 μm of the u-Shape3D-derived surface) that were higher than that cell's mean cytoplasmic intensity (performed using a MATLAB script). […] To quantify PI3K biosensor fluorescence signal, cells were segmented with u-shape3D and the intracellular signal was summed across the z-axis to yield a sum projection image (performed with the FIJI ImageJ package). […]

[3] = test system: ERK; test: ERK activity assay with ERK-nKTR-GFP biosensor in MV3 cells
Protocol: Detached/Adhered Cell Culture. […] Drug treatments, solvent-only controls, or CellEvent caspase activity sensor were added to suspensions if appropriate to the experiment, and then immediately transferred to both an uncoated (for detached cells) and ibiTreated (for adhered cells) 8-well ibidi u-slide (ibidi cat #80821 and 80826) at 200 μl/well. Both slides were stored at 37° C. and 5% CO2 for either 24 hours (hrs) for viability assays, 3 hrs for ERK activity assays or 4 hours for caspase activation assays. Uncoated slides (detached) were nutated at 20 rpm during this time. […]
Viability, ERK Activity, and Caspase ActivityCell Counting Assays. Viability, ERK activity, and caspase activity assays were analyzed using live-cell fluorescent and phase-contrast microscopy, performed on a Nikon Ti microscope equipped with an environmental chamber held at 37° C. and 5% CO2 at 20× magnification. […] Live and dead cells (as identified by significant cellular ethidium signal) were counted using the Cell Counter ImageJ plugin. For ERK activity assays, live cells carrying ERK-nKTR-GFP and H2B-mCherry were imaged after 3 hours of experimental conditions and high/low ERK activity cells were counted with Cell Counter ImageJ plugin. […] Caspase positive and negative cells (as identified by significant cellular CellEvent signal) were counted using the Cell Counter ImageJ plugin.

O=C(Nc1ccccc1)Nc1ccnc(Cl)c1 [FCF, forchlorfenuron]
enrichment of NRAS near the cell surface [1]: significantly reduced enrichment of NRAS near the cell surface | PI3K activity [2]: PI3K activity fell significantly | ERK signaling ([3]; adhered MV3, 3 hours of FCF): no difference in ERK signaling compared to controls | ERK activation ([3]; detached MV3, 3 hours of FCF): significantly reduced
